Reference: ChEMBL document CHEMBL1201861, “Genomics of Drug Sensitity in Cancer screening data, Wellcome Trust Sanger Institute”

Tests used:
Assay in all cases: cells
Settings in all cases: Homo sapiens
[1] = tested on: MV4-11; assay type: functional, cell-based, MV-4-11;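 note: cell viability readout measuring growth inhibition of human MV-4-11 cells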
Description: SANGER: Inhibition of human MV-4-11 cell growth in a cell viability assay.

[2] = tested on: EW-16; assay type: functional, cell-based;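 note: growth inhibition of human EW-16 cells, read out as cell viability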
Description: SANGER: Inhibition of human EW-16 cell growth in a cell viability assay.

[3] = tested on: SBC-1; assay type: functional, cell-based;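 note: cell viability assay measuring growth inhibition of the SBC-1 cell line, IC50 being the concentration that halves growth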
Description: SANGER: Inhibition of human SBC-1 cell growth in a cell viability assay.

[4] = tested on: HDLM-2; assay type: functional, cell-based;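 note: cell viability assay measuring suppression of HDLM-2 proliferation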
Description: SANGER: Inhibition of human HDLM-2 cell growth in a cell viability assay.

[5] = tested on: ES6; assay type: functional, cell-based;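 note: growth inhibition of human ES6 cells, read out with a cell viability assay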
Description: SANGER: Inhibition of human ES6 cell growth in a cell viability assay.

[6] = tested on: RKO; assay type: functional, cell-based;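 note: growth inhibition of human RKO cells, read out with a cell viability assay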
Description: SANGER: Inhibition of human RKO cell growth in a cell viability assay.

[7] = tested on: D283 Med; assay type: functional, cell-based
Description: SANGER: Inhibition of human D-283MED cell growth in a cell viability assay.

[8] = tested on: DB; assay type: functional, cell-based
Description: SANGER: Inhibition of human DB cell growth in a cell viability assay.

[9] = tested on: NCI-H526; assay type: functional, cell-based;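 note: growth inhibition of the human NCI-H526 cell line, measured by a cell viability assay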
Description: SANGER: Inhibition of human NCI-H526 cell growth in a cell viability assay.

[10] = tested on: JAR; assay type: functional, cell-based;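 note: growth inhibition of human JAR cells determined with a cell viability assay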
Description: SANGER: Inhibition of human JAR cell growth in a cell viability assay.

[11] = tested on: NB69; assay type: functional, cell-based;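 note: growth inhibition of NB69 cells, determined by a cell viability assay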
Description: SANGER: Inhibition of human NB69 cell growth in a cell viability assay.

[12] = tested on: A4-Fuk; assay type: functional, cell-based;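 note: growth inhibition of A4-Fuk cells, read out by a cell viability assay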
Description: SANGER: Inhibition of human A4-Fuk cell growth in a cell viability assay.

[13] = tested on: LB1047-RCC; assay type: functional, cell-based;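 note: inhibition of cell growth, determined with a cell viability assay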
Description: SANGER: Inhibition of human LB1047-RCC cell growth in a cell viability assay.

[14] = tested on: KP-N-YS; assay type: functional, cell-based;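 note: cell viability assay measuring inhibition of cell line growth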
Description: SANGER: Inhibition of human KP-N-YS cell growth in a cell viability assay.

[15] = tested on: TE-5; assay type: functional, cell-based;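 note: inhibition of cell growth, read out by a cell viability assay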
Description: SANGER: Inhibition of human TE-5 cell growth in a cell viability assay.

[16] = tested on: MFH-ino; assay type: functional, cell-based;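 note: growth inhibition of human MFH-ino cells, read out by a cell viability assay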
Description: SANGER: Inhibition of human MFH-ino cell growth in a cell viability assay.

[17] = tested on: CTB-1; assay type: functional, cell-based
Description: SANGER: Inhibition of human CTB-1 cell growth in a cell viability assay.

[18] = tested on: COLO-684; assay type: functional, cell-based
Description: SANGER: Inhibition of human COLO-684 cell growth in a cell viability assay.

[19] = tested on: NCI-H1838; assay type: functional, cell-based;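 note: growth inhibition of NCI-H1838 cells, determined with a cell viability readout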
Description: SANGER: Inhibition of human NCI-H1838 cell growth in a cell viability assay.

[20] = tested on: MOLT-16; assay type: functional, cell-based;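 note: growth inhibition of human MOLT-16 cells, read out with a cell viability assay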
Description: SANGER: Inhibition of human MOLT-16 cell growth in a cell viability assay.

[21] = tested on: LB771-HNC; assay type: functional, cell-based;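 note: growth inhibition of LB771-HNC human cells, read out with a cell viability assay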
Description: SANGER: Inhibition of human LB771-HNC cell growth in a cell viability assay.

[22] = tested on: TE-6; assay type: functional, cell-based;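 note: growth inhibition of TE-6 cells, read out with a cell viability assay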
Description: SANGER: Inhibition of human TE-6 cell growth in a cell viability assay.

[23] = tested on: 697; assay type: functional, cell-based
Description: SANGER: Inhibition of human 697 cell growth in a cell viability assay.

[24] = tested on: ES3; assay type: functional, cell-based;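 note: growth inhibition of ES3 cells, read out with a cell viability assay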
Description: SANGER: Inhibition of human ES3 cell growth in a cell viability assay.

[25] = tested on: NCI-H1355; assay type: functional, cell-based;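 note: growth inhibition of human NCI-H1355 cells, read out by a cell viability assay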
Description: SANGER: Inhibition of human NCI-H1355 cell growth in a cell viability assay.

[26] = tested on: HEL; assay type: functional, cell-based;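 note: growth inhibition of HEL cells, read out with a cell viability assay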
Description: SANGER: Inhibition of human HEL cell growth in a cell viability assay.

[27] = tested on: C2BBe1; assay type: functional, cell-based;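 note: growth inhibition of C2BBe1 cells, read out through a viability assay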
Description: SANGER: Inhibition of human C2BBe1 cell growth in a cell viability assay.

[28] = tested on: RPMI-8226; assay type: functional, cell-based
Description: SANGER: Inhibition of human RPMI-8226 cell growth in a cell viability assay.

[29] = tested on: EW-3; assay type: functional, cell-based;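 note: cell viability assay read-out, IC50 reflects inhibition of growth of the EW-3 cells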
Description: SANGER: Inhibition of human EW-3 cell growth in a cell viability assay.

[30] = tested on: COR-L88; assay type: functional, cell-based;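 note: growth inhibition of COR-L88 cells, read out with a cell viability assay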
Description: SANGER: Inhibition of human COR-L88 cell growth in a cell viability assay.

[31] = tested on: EW-13; assay type: functional, cell-based;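 note: growth inhibition of EW-13 cells, read out with a cell viability assay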
Description: SANGER: Inhibition of human EW-13 cell growth in a cell viability assay.

[32] = tested on: ES1; assay type: functional, cell-based;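 note: growth inhibition of ES1 cells, read out with a cell viability assay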
Description: SANGER: Inhibition of human ES1 cell growth in a cell viability assay.

[33] = tested on: GB-1; assay type: functional, cell-based;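 note: growth of GB-1 cells judged by a viability assay, IC50 marks the concentration inhibiting growth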
Description: SANGER: Inhibition of human GB-1 cell growth in a cell viability assay.

[34] = tested on: NCI-H1581; assay type: functional, cell-based;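 note: cell growth inhibition read out by a viability assay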
Description: SANGER: Inhibition of human NCI-H1581 cell growth in a cell viability assay.

[35] = tested on: SCC-15; assay type: functional, cell-based;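 note: growth inhibition of SCC-15 cells, read out with a cell viability assay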
Description: SANGER: Inhibition of human SCC-15 cell growth in a cell viability assay.

[36] = tested on: K5; assay type: functional, cell-based
Description: SANGER: Inhibition of human K5 cell growth in a cell viability assay.

[37] = tested on: SW 954; assay type: functional, cell-based;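 note: growth inhibition of SW954 human cancer cells, read out as cell viability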
Description: SANGER: Inhibition of human SW954 cell growth in a cell viability assay.

[38] = tested on: NCI-H209; assay type: functional, cell-based;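 note: growth inhibition of human NCI-H209 cells, measured by a cell viability assay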
Description: SANGER: Inhibition of human NCI-H209 cell growth in a cell viability assay.

[39] = tested on: NMC-G1; assay type: functional, cell-based;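 note: growth inhibition of the NMC-G1 cell line, measured with a cell viability read-out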
Description: SANGER: Inhibition of human NMC-G1 cell growth in a cell viability assay.

[40] = tested on: JVM-3; assay type: functional, cell-based;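 note: growth inhibition of human JVM-3 cells, read out with a cell viability assay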
Description: SANGER: Inhibition of human JVM-3 cell growth in a cell viability assay.

[41] = tested on: LB831-BLC; assay type: functional, cell-based;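 note: growth inhibition of LB831-BLC cells, read out with a cell viability assay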
Description: SANGER: Inhibition of human LB831-BLC cell growth in a cell viability assay.

[42] = tested on: KG-1; assay type: functional, cell-based;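 note: growth inhibition of KG-1 cells, read out by a cell viability assay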
Description: SANGER: Inhibition of human KG-1 cell growth in a cell viability assay.

[43] = tested on: MZ7-mel; assay type: functional, cell-based;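 note: growth inhibition of human MZ7-mel cells, measured by a cell viability assay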
Description: SANGER: Inhibition of human MZ7-mel cell growth in a cell viability assay.

[44] = tested on: SK-PN-DW; assay type: functional, cell-based;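 note: growth inhibition measured with a viability assay on these cells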
Description: SANGER: Inhibition of human SK-PN-DW cell growth in a cell viability assay.

[45] = tested on: MOLT-4; assay type: functional, cell-based;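 note: growth inhibition of MOLT-4 cells, determined with a cell viability readout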
Description: SANGER: Inhibition of human MOLT-4 cell growth in a cell viability assay.

[46] = tested on: TE-9; assay type: functional, cell-based;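 note: cell growth inhibition, measured with a cell viability readout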
Description: SANGER: Inhibition of human TE-9 cell growth in a cell viability assay.

[47] = tested on: J-RT3-T3-5; assay type: functional, cell-based;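 note: cell viability assay measuring growth inhibition of human J-RT3-T3-5 cells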
Description: SANGER: Inhibition of human J-RT3-T3-5 cell growth in a cell viability assay.

[48] = tested on: SK-MEL-1; assay type: functional, cell-based;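 note: growth inhibition of human SK-MEL-1 cells, read out by a cell viability assay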
Description: SANGER: Inhibition of human SK-MEL-1 cell growth in a cell viability assay.

[49] = tested on: LS-411N; assay type: functional, cell-based
[50] = tested on: LOX IMVI; assay type: functional, cell-based
Description: SANGER: Inhibition of human LOXIMVI cell growth in a cell viability assay.

[51] = tested on: MZ1-PC; assay type: functional, cell-based;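 note: cell viability assay measuring growth inhibition of human MZ1-PC cells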
Description: SANGER: Inhibition of human MZ1-PC cell growth in a cell viability assay.

[52] = tested on: TE-1; assay type: functional, cell-based;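 note: growth inhibition of the human TE-1 cell line, read out with a cell viability assay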
Description: SANGER: Inhibition of human TE-1 cell growth in a cell viability assay.

[53] = tested on: U-266; assay type: functional, cell-based
Description: SANGER: Inhibition of human U-266 cell growth in a cell viability assay.

[54] = tested on: BB49-HNC; assay type: functional, cell-based;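 note: cell viability assay read-out, reported as inhibition of BB49-HNC cell growth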
Description: SANGER: Inhibition of human BB49-HNC cell growth in a cell viability assay.

[55] = tested on: A388; assay type: functional, cell-based;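 note: growth inhibition of human A388 cells, read out with a cell viability assay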
Description: SANGER: Inhibition of human A388 cell growth in a cell viability assay.

[56] = tested on: NCI-H1648; assay type: functional, cell-based;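 note: cell viability assay measuring inhibition of NCI-H1648 cell growth, from the Sanger screening data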
Description: SANGER: Inhibition of human NCI-H1648 cell growth in a cell viability assay.

[57] = tested on: GR-ST; assay type: functional, cell-based
Description: SANGER: Inhibition of human GR-ST cell growth in a cell viability assay.

[58] = tested on: ES8; assay type: functional, cell-based;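 note: growth inhibition of human ES8 cells, read out with a cell viability assay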
Description: SANGER: Inhibition of human ES8 cell growth in a cell viability assay.

[59] = tested on: GI-1; assay type: functional, cell-based;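 note: growth inhibition of human GI-1 cells, measured with a cell viability readout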
Description: SANGER: Inhibition of human GI-1 cell growth in a cell viability assay.

[60] = tested on: KM12; assay type: functional, cell-based;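 note: KM12 cell growth inhibition, read out with a cell viability assay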
Description: SANGER: Inhibition of human KM12 cell growth in a cell viability assay.

[61] = tested on: KGN; assay type: functional, cell-based
Description: SANGER: Inhibition of human KGN cell growth in a cell viability assay.

[62] = tested on: CGTH-W-1; assay type: functional, cell-based
Description: SANGER: Inhibition of human CGTH-W-1 cell growth in a cell viability assay.

[63] = tested on: MS-1; assay type: functional, cell-based
Description: SANGER: Inhibition of human MS-1 cell growth in a cell viability assay.

[64] = tested on: ACN; assay type: functional, cell-based
Description: SANGER: Inhibition of human ACN cell growth in a cell viability assay.

Cc1ccc(NC(=O)c2cccc(C(C)(C)C#N)c2)cc1Nc1ccc2ncn(C)c(=O)c2c1
IC50 [1]: 1.42 µM | IC50 [2]: > 4 µM | IC50 [3]: > 4 µM | IC50 [4]: > 4 µM | IC50 [5]: > 4 µM | IC50 [6]: 0.0377 µM | IC50 [7]: > 4 µM | IC50 [8]: > 4 µM | IC50 [9]: > 4 µM | IC50 [10]: > 4 µM | IC50 [11]: 0.191 µM | IC50 [12]: 0.484 µM | IC50 [13]: > 4 µM | IC50 [14]: > 4 µM | IC50 [15]: > 4 µM | IC50 [16]: > 4 µM | IC50 [17]: > 4 µM | IC50 [18]: > 4 µM | IC50 [19]: > 4 µM | IC50 [20]: > 4 µM | IC50 [21]: > 4 µM | IC50 [22]: > 4 µM | IC50 [23]: 0.364 µM | IC50 [24]: > 4 µM | IC50 [25]: > 4 µM | IC50 [26]: > 4 µM | IC50 [27]: > 4 µM | IC50 [28]: 2.47 µM | IC50 [29]: > 4 µM | IC50 [30]: > 4 µM | IC50 [31]: > 4 µM | IC50 [32]: > 4 µM | IC50 [33]: > 4 µM | IC50 [34]: > 4 µM | IC50 [35]: > 4 µM | IC50 [36]: 0.134 µM | IC50 [37]: > 4 µM | IC50 [38]: > 4 µM | IC50 [39]: > 4 µM | IC50 [40]: > 4 µM | IC50 [41]: > 4 µM | IC50 [42]: 3.81 µM | IC50 [43]: 0.117 µM | IC50 [44]: > 4 µM | IC50 [45]: > 4 µM | IC50 [46]: > 4 µM | IC50 [47]: > 4 µM | IC50 [48]: 0.384 µM | IC50 [49]: 0.0916 µM | IC50 [50]: > 4 µM | IC50 [51]: 0.28 µM | IC50 [52]: > 4 µM | IC50 [53]: > 4 µM | IC50 [54]: 0.352 µM | IC50 [55]: > 4 µM | IC50 [56]: 0.673 µM | IC50 [57]: > 4 µM | IC50 [58]: > 4 µM | IC50 [59]: > 4 µM | IC50 [60]: 2.08 µM | IC50 [61]: > 4 µM | IC50 [62]: 0.121 µM | IC50 [63]: > 4 µM | IC50 [64]: < 0.0156 µM
